Data as given in ChEMBL document CHEMBL1201862, “PubChem BioAssay data set” (2004).
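Cultured in 96-well plates, cells were exposed to test compound for 48 hours across five concentrations. GI50 marks 50% less growth.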 Calls of active or inactive are those of the source. Rule as the data show it: active = GI50 up to about 1.1 µM and inactive = higher.

Key:
Assay in all cases: growth of human tumour cells (NCI), 48 h
IGROV-1 = tested on: IGROV-1
LOX IMVI = tested on: LOX IMVI
RXF 631 = tested on: RXF 631
SNB-78 = tested on: SNB-78
HOP-18 = tested on: HOP-18
DMS-114 = tested on: DMS-114
DMS-273 = tested on: DMS-273
786-0 = tested on: 786-0
KM12 = tested on: KM12
SN12C = tested on: SN12C
SW-620 = tested on: SW-620
HCC 2998 = tested on: HCC 2998
SF-268 = tested on: SF-268
OVCAR-8 = tested on: OVCAR-8
OVCAR-5 = tested on: OVCAR-5
SK-MEL-2 = tested on: SK-MEL-2
HOP-62 = tested on: HOP-62
RXF 393 = tested on: RXF 393
TK-10 = tested on: TK-10
SR = tested on: SR
COLO 205 = tested on: COLO 205
OVCAR-3 = tested on: OVCAR-3
HT-29 = tested on: HT-29
CCRF-CEM = tested on: CCRF-CEM
CAKI-1 = tested on: CAKI-1
A549 = tested on: A549
Malme-3M = tested on: Malme-3M
SK-MEL-28 = tested on: SK-MEL-28
HCT-15 = tested on: HCT-15
EKVX = tested on: EKVX
SNB-75 = tested on: SNB-75
UO-31 = tested on: UO-31
ACHN = tested on: ACHN
SF-539 = tested on: SF-539
KM-20L2 = tested on: KM-20L2
A498 = tested on: A498
HL-60 = tested on: HL-60
XF498 = tested on: XF498
DLD-1 = tested on: DLD-1
M14 = tested on: M14
HCT-116 = tested on: HCT-116
SF-295 = tested on: SF-295
SK-OV-3 = tested on: SK-OV-3
OVCAR-4 = tested on: OVCAR-4
M19-MEL = tested on: M19-MEL
NCI-H23 = tested on: NCI-H23
LXFL 529 = tested on: LXFL 529
HOP-92 = tested on: HOP-92
MOLT-4 = tested on: MOLT-4
NCI-H460 = tested on: NCI-H460
UACC-257 = tested on: UACC-257
U-251 = tested on: U-251
SNB-19 = tested on: SNB-19
K562 = tested on: K562
SK-MEL-5 = tested on: SK-MEL-5
UACC-62 = tested on: UACC-62
RPMI-8226 = tested on: RPMI-8226
NCI-H522 = tested on: NCI-H522
NCI-H226 = tested on: NCI-H226

C=C1CC(C/C=C(\C)CC2CC(=C)C(=O)O2)OC1=O (stereo not given)
GI50 (IGROV-1): > 100 µM (inactive)
GI50 (LOX IMVI): > 100 µM (inactive)
GI50 (RXF 631): > 100 µM (inactive)
GI50 (SNB-78): > 100 µM (inactive)
GI50 (HOP-18): > 100 µM (inactive)
GI50 (DMS-114): > 100 µM (inactive)
GI50 (DMS-273): > 100 µM (inactive)
GI50 (786-0): > 100 µM (inactive)
GI50 (KM12): > 100 µM (inactive)
GI50 (SN12C): > 100 µM (inactive)
GI50 (SW-620): > 100 µM (inactive)
GI50 (HCC 2998): > 100 µM (inactive)
GI50 (SF-268): > 100 µM (inactive)
GI50 (OVCAR-8): > 100 µM (inactive)
GI50 (OVCAR-5): > 100 µM (inactive)
GI50 (SK-MEL-2): > 100 µM (inactive)
GI50 (HOP-62): > 100 µM (inactive)
GI50 (RXF 393): > 100 µM (inactive)
GI50 (TK-10): > 100 µM (inactive)
GI50 (SR): > 100 µM (inactive)
GI50 (COLO 205): > 100 µM (inactive)
GI50 (OVCAR-3): > 100 µM (inactive)
GI50 (HT-29): > 100 µM (inactive)
GI50 (CCRF-CEM): > 100 µM (inactive)
GI50 (CAKI-1): > 100 µM (inactive)
GI50 (A549): > 100 µM (inactive)
GI50 (Malme-3M): > 100 µM (inactive)
GI50 (SK-MEL-28): > 100 µM (inactive)
GI50 (HCT-15): > 100 µM
GI50 (EKVX): > 100 µM (inactive)
GI50 (SNB-75): > 100 µM (inactive)
GI50 (UO-31): > 100 µM (inactive)
GI50 (ACHN): > 100 µM (inactive)
GI50 (SF-539): > 100 µM (inactive)
GI50 (KM-20L2): > 100 µM (inactive)
GI50 (A498): > 100 µM (inactive)
GI50 (HL-60): > 100 µM (inactive)
GI50 (XF498): > 100 µM (inactive)
GI50 (DLD-1): > 100 µM (inactive)
GI50 (M14): > 100 µM (inactive)
GI50 (HCT-116): > 100 µM (inactive)
GI50 (SF-295): > 100 µM (inactive)
GI50 (SK-OV-3): > 100 µM (inactive)
GI50 (OVCAR-4): > 100 µM (inactive)
GI50 (M19-MEL): > 100 µM (inactive)
GI50 (NCI-H23): > 100 µM (inactive)
GI50 (LXFL 529): > 100 µM (inactive)
GI50 (HOP-92): > 100 µM (inactive)
GI50 (MOLT-4): > 100 µM (inactive)
GI50 (NCI-H460): > 100 µM (inactive)
GI50 (UACC-257): > 100 µM (inactive)
GI50 (U-251): > 100 µM (inactive)
GI50 (SNB-19): > 100 µM (inactive)
GI50 (K562): > 100 µM (inactive)
GI50 (SK-MEL-5): > 100 µM (inactive)
GI50 (UACC-62): > 100 µM (inactive)

C=C(C)CCN[Si](c1ccccc1)(c1ccccc1)C(C)(C)C
GI50 (IGROV-1): 27.1 µM (inactive)
GI50 (LOX IMVI): 17.8 µM (inactive)
GI50 (RXF 631): 20.2 µM (inactive)
GI50 (SNB-78): 25.1 µM (inactive)
GI50 (HOP-18): 17.2 µM (inactive)
GI50 (DMS-114): 21.7 µM (inactive)
GI50 (DMS-273): 18.8 µM (inactive)
GI50 (786-0): 16.6 µM (inactive)
GI50 (KM12): 18.5 µM (inactive)
GI50 (SN12C): 18.2 µM (inactive)
GI50 (SW-620): 40 µM (inactive)
GI50 (HCC 2998): 21.1 µM (inactive)
GI50 (SF-268): 30.5 µM (inactive)
GI50 (RPMI-8226): 24 µM (inactive)
GI50 (OVCAR-8): 19.6 µM (inactive)
GI50 (SK-MEL-2): 15.2 µM (inactive)
GI50 (HOP-62): 17.1 µM (inactive)
GI50 (RXF 393): 15.3 µM (inactive)
GI50 (NCI-H522): 18.1 µM (inactive)
GI50 (TK-10): 22.5 µM (inactive)
GI50 (COLO 205): 18.5 µM (inactive)
GI50 (OVCAR-3): 17.6 µM (inactive)
GI50 (HT-29): 16.6 µM (inactive)
GI50 (CCRF-CEM): 25.8 µM (inactive)
GI50 (A549): 24.1 µM (inactive)
GI50 (Malme-3M): 20.5 µM (inactive)
GI50 (SK-MEL-28): 20.3 µM (inactive)
GI50 (HCT-15): 21.9 µM
GI50 (EKVX): 22.1 µM (inactive)
GI50 (SNB-75): 28.5 µM (inactive)
GI50 (UO-31): 13.7 µM (inactive)
GI50 (ACHN): 26 µM (inactive)
GI50 (SF-539): 15.6 µM (inactive)
GI50 (KM-20L2): 17.9 µM (inactive)
GI50 (A498): 28.9 µM (inactive)
GI50 (HL-60): 20.1 µM (inactive)
GI50 (XF498): 24.5 µM (inactive)
GI50 (M14): 18.9 µM (inactive)
GI50 (HCT-116): 14.6 µM (inactive)
GI50 (SF-295): 19.3 µM (inactive)
GI50 (SK-OV-3): 32.3 µM (inactive)
GI50 (OVCAR-4): 19 µM (inactive)
GI50 (M19-MEL): 20.5 µM (inactive)
GI50 (NCI-H23): 19.4 µM (inactive)
GI50 (HOP-92): 18.2 µM (inactive)
GI50 (MOLT-4): 18.7 µM (inactive)
GI50 (NCI-H460): 29 µM (inactive)
GI50 (UACC-257): 15.7 µM (inactive)
GI50 (NCI-H226): 12.1 µM (inactive)
GI50 (U-251): 15.4 µM (inactive)
GI50 (SNB-19): 18.4 µM (inactive)
GI50 (K562): 24.1 µM (inactive)
GI50 (SK-MEL-5): 19 µM (inactive)
GI50 (UACC-62): 17 µM (inactive)

C=CC[P@]1(=O)O[C@H](c2ccccc2)C(C)N1C(C)C (stereo not given in full)
GI50 (IGROV-1): > 100 µM (inactive)
GI50 (LOX IMVI): > 100 µM (inactive)
GI50 (RXF 631): > 100 µM (inactive)
GI50 (HOP-18): > 100 µM (inactive)
GI50 (DMS-114): > 100 µM (inactive)
GI50 (786-0): > 100 µM (inactive)
GI50 (KM12): > 100 µM (inactive)
GI50 (SN12C): > 100 µM (inactive)
GI50 (SW-620): > 100 µM (inactive)
GI50 (HCC 2998): > 100 µM (inactive)
GI50 (SF-268): > 100 µM (inactive)
GI50 (RPMI-8226): > 100 µM (inactive)
GI50 (OVCAR-8): > 100 µM (inactive)
GI50 (OVCAR-5): > 100 µM (inactive)
GI50 (SK-MEL-2): > 100 µM (inactive)
GI50 (HOP-62): > 100 µM (inactive)
GI50 (RXF 393): > 100 µM (inactive)
GI50 (NCI-H522): > 100 µM (inactive)
GI50 (TK-10): > 100 µM (inactive)
GI50 (SR): > 100 µM (inactive)
GI50 (COLO 205): > 100 µM (inactive)
GI50 (OVCAR-3): > 100 µM (inactive)
GI50 (HT-29): > 100 µM (inactive)
GI50 (CCRF-CEM): > 100 µM (inactive)
GI50 (A549): > 100 µM (inactive)
GI50 (Malme-3M): > 100 µM (inactive)
GI50 (SK-MEL-28): > 100 µM (inactive)
GI50 (HCT-15): > 100 µM
GI50 (EKVX): > 100 µM (inactive)
GI50 (SNB-75): > 100 µM (inactive)
GI50 (UO-31): > 100 µM (inactive)
GI50 (ACHN): > 100 µM (inactive)
GI50 (SF-539): > 100 µM (inactive)
GI50 (KM-20L2): > 100 µM (inactive)
GI50 (A498): > 100 µM (inactive)
GI50 (HL-60): > 100 µM (inactive)
GI50 (XF498): > 100 µM (inactive)
GI50 (DLD-1): > 100 µM (inactive)
GI50 (M14): > 100 µM (inactive)
GI50 (HCT-116): > 100 µM (inactive)
GI50 (SF-295): > 100 µM (inactive)
GI50 (SK-OV-3): > 100 µM (inactive)
GI50 (M19-MEL): > 100 µM (inactive)
GI50 (NCI-H23): > 100 µM (inactive)
GI50 (LXFL 529): > 100 µM (inactive)
GI50 (HOP-92): > 100 µM (inactive)
GI50 (MOLT-4): > 100 µM (inactive)
GI50 (NCI-H460): > 100 µM (inactive)
GI50 (UACC-257): > 100 µM (inactive)
GI50 (NCI-H226): > 100 µM (inactive)
GI50 (U-251): > 100 µM (inactive)
GI50 (SNB-19): > 100 µM (inactive)
GI50 (K562): > 100 µM (inactive)
GI50 (SK-MEL-5): > 100 µM (inactive)
GI50 (UACC-62): > 100 µM (inactive)
